We go through four compounds from ChEMBL document CHEMBL1151551, “An acid-cleavable linker stable at neutral pH that releases doxorubicin at lysosomal pH” (Bioorg Med Chem Lett, 1993).

Data set [1] is filed under the species Mus musculus. Description: The compound was evaluated for half life (release of DOX) […] at 37 degree Celsius at the pH 7. The format is ADME.
The species entered for data set [2] is Mus musculus. In words: The compound was evaluated for half life (release of DOX) […] at 37 degree Celsius at the pH 5. The format is ADME.

Each structure is given as a SMILES string. A value given as a limit tells only on which side of the number the result lay.

As for `CCCCNC(=O)C1(C)CC(C)(C(=O)O)CC(C)(C(=O)NC2CC(O[C@H]3C[C@](O)(C(=O)CO)Cc4c(O)c5c(c(O)c43)C(=O)c3c(OC)cccc3C5=O)OC(C)C2O)C1` (some centres not stated), the T1/2 in the data set listed under Mus musculus [1] is greater than 160 days; in the data set filed under Mus musculus [2], 90 h.
For `CCCCN(C)C(=O)C1(C)CC(C)(C(=O)O)CC(C)(C(=O)N(C(=O)C(F)(F)F)C2CC(O[C@H]3C[C@](O)(C(=O)CO)Cc4c(O)c5c(c(O)c43)C(=O)c3c(OC)cccc3C5=O)OC(C)C2O)C1` (some centres not stated) the same measures were greater than 174 days and greater than 174 h.
On to `COc1cccc2c1C(=O)c1c(O)c3c(c(O)c1C2=O)C[C@@](O)(C(=O)CO)C[C@@H]3OC1CC(NC(=O)C2(C)CC(C)(C(=O)O)CC(C)(C(=O)O)C2)C(O)C(C)O1` (some centres not stated), for which the T1/2 in the data set listed under Mus musculus [2] was determined as 30 h.
In the case of `COC(=O)C1(C)CC(C)(C(=O)O)CC(C)(C(=O)NC2CC(O[C@H]3C[C@](O)(C(=O)CO)Cc4c(O)c5c(c(O)c43)C(=O)c3c(OC)cccc3C5=O)OC(C)C2O)C1` (some centres not stated), the T1/2 in the data set filed under Mus musculus [1] is greater than 100 days; in the data set filed under Mus musculus [2], 40 h.
